Data published in patent US7138361B2, “Herbicidal heterocycles” (E. I. du Pont de Nemours and Company, priority 2000, dated 2006).

Columns and labels:
Type in all cases: in vivo
Sunflower = assay: Test C preemergence; conditions: Rate 250 g/ha, scale 0 to 100, 0 no effect, 100 complete control
[1] = system: giant foxtail (Setaria faberii); assay: Test C postemergence; conditions: scale 0 to 100 (0 no effect, 100 complete control)
Summary of the method: (§1)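 Preemergence: seeds sown then treated. Postemergence: plants 2–18 cm, 1- to 4-leaf. Both with surfactant-containing solvent formulation; visual injury scored 0–100 after 12–14 d.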

[2] = system: johnsongrass (Sorghum halepense); assay: Test C postemergence
Summary of the method: as §1

soybean (Glycine max) = assay: Test C postemergence
Summary of the method: as §1

[3] = system: crabgrass (Digitaria sanguinalis); assay: Test C postemergence
Summary of the method: as §1

[4] = system: lambsquarters (Chenopodium album); assay: Test C postemergence
Summary of the method: as §1

kochia (Kochia scoparia) = assay: Test C postemergence
Summary of the method: as §1

[5] = system: common ragweed (Ambrosia elatior); assay: Test C postemergence
Summary of the method: as §1

[6] = system: Surinam grass (Brachiaria decumbens); assay: Test C postemergence
Summary of the method: as §1

[7] = system: bermudagrass (Cynodon dactylon); assay: Test C postemergence
Summary of the method: as §1

[8] = system: pigweed (Amaranthus retroflexus); assay: Test C postemergence
Summary of the method: as §1

[9] = system: chickweed (Stellaria media); assay: Test C postemergence
Summary of the method: as §1

[10] = system: morningglory (Ipomoea hederacea); assay: Test C postemergence
Summary of the method: as §1

[11] = system: goosegrass (Eleusine indica); assay: Test C postemergence
Summary of the method: as §1

corn (Zea mays) = assay: Test C postemergence
Summary of the method: as §1

[12] = system: cocklebur (Xanthium strumarium); assay: Test C postemergence
Summary of the method: as §1

[13] = system: yellow nutsedge (Cyperus esculentus); assay: Test C postemergence
Summary of the method: as §1

[14] = system: velvetleaf (Abutilon theophrasti); assay: Test C postemergence
Summary of the method: as §1

[15] = system: woolly cupgrass (Eriochloa villosa); assay: Test C postemergence
Summary of the method: as §1

[16] = Rate 250 g/ha, scale 0 to 100 (0 no effect, 100 complete control)
[17] = Rate 500 g/ha, scale 0 to 100 (0 no effect, 100 complete control)
[18] = Rate 125 g/ha, scale 0 to 100, 0 no effect, 100 complete control

In the case of `COc1cc(N2CCC(n3ccc(C(C)(C)C)n3)C2=O)ccc1Br` (stereo not shown) [Compound 141], the “Plant response rating, Sunflower” value (Sunflower) is reported as 40, the “Plant response rating, Foxtail, Giant” value ([1]; Rate 250 g/ha) is reported as 80 and the “Plant response rating, Johnsongrass” value ([2]; Rate 62 g/ha, scale 0 to 100) is reported as 20. For the same molecule, the “Plant response rating, Johnsongrass” value [2, 16] was 30, the “Plant response rating, Johnsongrass” value [2, 17] was 40 and the “Plant response rating, Johnsongrass” value ([2]; rate not given, scale 0 to 100) was 30. The “Plant response rating, Soybean” value (soybean (Glycine max); Rate 62 g/ha, scale 0 to 100) was 90, the “Plant response rating, Soybean” value (soybean (Glycine max); [16]) was 100 and the “Plant response rating, Soybean” value (soybean (Glycine max); [17]) was 100. The “Plant response rating, Crabgrass” value ([3]; Rate 62 g/ha, scale 0 to 100) was 60, the “Plant response rating, Crabgrass” value [3, 16] was 60 and the “Plant response rating, Crabgrass” value [3, 17] was 70. For the same molecule, the “Plant response rating, Lambsquarters” value ([4]; Rate 62 g/ha, scale 0 to 100) was 70, the “Plant response rating, Lambsquarters” value [4, 17] was 100 and the “Plant response rating, Kochia” value (kochia (Kochia scoparia); Rate 62 g/ha, scale 0 to 100) was 10. For the same molecule, the “Plant response rating, Kochia” value (kochia (Kochia scoparia); [16]) was 80, the “Plant response rating, Kochia” value (kochia (Kochia scoparia); [17]) was 90 and the “Plant response rating, Ragweed, Common” value ([5]; Rate 62 g/ha, scale 0 to 100) was 20. For the same molecule, the “Plant response rating, Ragweed, Common” value [5, 16] was 80, the “Plant response rating, Ragweed, Common” value [5, 17] was 90 and the “Plant response rating, Surinam grass” value ([6]; Rate 62 g/ha, scale 0 to 100) was 20. For the same molecule, the “Plant response rating, Surinam grass” value [6, 18] was 40, the “Plant response rating, Surinam grass” value [6, 16] was 60 and the “Plant response rating, Surinam grass” value [6, 17] was 60. The “Plant response rating, Bermudagrass” value ([7]; Rate 62 g/ha, scale 0 to 100) was 40, the “Plant response rating, Bermudagrass” value [7, 18] was 60 and the “Plant response rating, Bermudagrass” value [7, 16] was 60. The “Plant response rating, Bermudagrass” value [7, 17] was 100, the “Plant response rating, Pigweed” value ([8]; Rate 62 g/ha, scale 0 to 100) was 70 and the “Plant response rating, Pigweed” value [8, 16] was 70. The “Plant response rating, Pigweed” value [8, 17] was 100, the “Plant response rating, Chickweed” value ([9]; Rate 62 g/ha, scale 0 to 100) was 90 and the “Plant response rating, Chickweed” value [9, 18] was 100. For the same molecule, the “Plant response rating, Chickweed” value [9, 16] was 100, the “Plant response rating, Chickweed” value [9, 17] was 100 and the “Plant response rating, Morningglory” value ([10]; Rate 62 g/ha, scale 0 to 100) was 70. For the same molecule, the “Plant response rating, Morningglory” value [10, 17] was 100, the “Plant response rating, Goosegrass” value ([11]; Rate 62 g/ha, scale 0 to 100) was 20 and the “Plant response rating, Goosegrass” value [11, 16] was 50. The “Plant response rating, Goosegrass” value [11, 17] was 70, the “Plant response rating, Corn” value (corn (Zea mays); Rate 62 g/ha, scale 0 to 100) was 0 and the “Plant response rating, Corn” value (corn (Zea mays); [16]) was 0. For the same molecule, the “Plant response rating, Corn” value (corn (Zea mays); [17]) was 0, the “Plant response rating, Corn” value (corn (Zea mays); scale 0 to 100) was 0 and the “Plant response rating, Cocklebur” value ([12]; Rate 62 g/ha, scale 0 to 100) was 70. The “Plant response rating, Cocklebur” value [12, 16] was 70, the “Plant response rating, Cocklebur” value [12, 17] was 100 and the “Plant response rating, Nutsedge” value ([13]; Rate 62 g/ha, scale 0 to 100) was 0. The “Plant response rating, Nutsedge” value [13, 16] was 0, the “Plant response rating, Nutsedge” value [13, 17] was 0 and the “Plant response rating, Velvetleaf” value ([14]; Rate 62 g/ha, scale 0 to 100) was 50. The “Plant response rating, Velvetleaf” value [14, 16] was 50, the “Plant response rating, Velvetleaf” value [14, 17] was 80 and the “Plant response rating, Velvetleaf” value ([14]; scale 0 to 100) was 50. For the same molecule, the “Plant response rating, Cupgrass, Woolly” value ([15]; Rate 62 g/ha, scale 0 to 100) was 30, the “Plant response rating, Cupgrass, Woolly” value [15, 16] was 50 and the “Plant response rating, Cupgrass, Woolly” value [15, 17] was 70.

For `COc1cc(N2CCC(n3ccc(C(C)C)n3)C2=O)ccc1Br` (stereo not shown) [Compound 140], the “Plant response rating, Sunflower” value (Sunflower) was 60, the “Plant response rating, Foxtail, Giant” value ([1]; Rate 250 g/ha) was 90 and the “Plant response rating, Foxtail, Giant” value ([1]; Rate 500 g/ha) was 90. The “Plant response rating, Johnsongrass” value ([2]; Rate 62 g/ha, scale 0 to 100) was 30, the “Plant response rating, Johnsongrass” value [2, 16] was 50 and the “Plant response rating, Johnsongrass” value [2, 17] was 50. The “Plant response rating, Johnsongrass” value ([2]; rate not given, scale 0 to 100) was 30, the “Plant response rating, Soybean” value (soybean (Glycine max); Rate 62 g/ha, scale 0 to 100) was 70 and the “Plant response rating, Soybean” value (soybean (Glycine max); [16]) was 90. The “Plant response rating, Soybean” value (soybean (Glycine max); [17]) was 90, the “Plant response rating, Crabgrass” value ([3]; Rate 62 g/ha, scale 0 to 100) was 40 and the “Plant response rating, Crabgrass” value [3, 16] was 70. The “Plant response rating, Crabgrass” value [3, 17] was 70, the “Plant response rating, Lambsquarters” value ([4]; Rate 62 g/ha, scale 0 to 100) was 80 and the “Plant response rating, Lambsquarters” value [4, 16] was 90. The “Plant response rating, Lambsquarters” value [4, 17] was 100, the “Plant response rating, Kochia” value (kochia (Kochia scoparia); Rate 62 g/ha, scale 0 to 100) was 40 and the “Plant response rating, Kochia” value (kochia (Kochia scoparia); [16]) was 90. The “Plant response rating, Kochia” value (kochia (Kochia scoparia); [17]) was 90, the “Plant response rating, Ragweed, Common” value ([5]; Rate 62 g/ha, scale 0 to 100) was 50 and the “Plant response rating, Ragweed, Common” value [5, 16] was 90. The “Plant response rating, Ragweed, Common” value [5, 17] was 90, the “Plant response rating, Surinam grass” value ([6]; Rate 62 g/ha, scale 0 to 100) was 30 and the “Plant response rating, Surinam grass” value [6, 18] was 30. The “Plant response rating, Surinam grass” value [6, 16] was 90, the “Plant response rating, Bermudagrass” value ([7]; Rate 62 g/ha, scale 0 to 100) was 30 and the “Plant response rating, Bermudagrass” value [7, 18] was 40. The “Plant response rating, Bermudagrass” value [7, 16] was 70, the “Plant response rating, Bermudagrass” value [7, 17] was 90 and the “Plant response rating, Pigweed” value ([8]; Rate 62 g/ha, scale 0 to 100) was 30. For the same molecule, the “Plant response rating, Pigweed” value [8, 16] was 80, the “Plant response rating, Pigweed” value [8, 17] was 80 and the “Plant response rating, Chickweed” value ([9]; Rate 62 g/ha, scale 0 to 100) was 90. The “Plant response rating, Chickweed” value [9, 18] was 100, the “Plant response rating, Morningglory” value ([10]; Rate 62 g/ha, scale 0 to 100) was 60 and the “Plant response rating, Morningglory” value [10, 16] was 100. The “Plant response rating, Morningglory” value [10, 17] was 100, the “Plant response rating, Goosegrass” value ([11]; Rate 62 g/ha, scale 0 to 100) was 20 and the “Plant response rating, Goosegrass” value [11, 16] was 80. The “Plant response rating, Corn” value (corn (Zea mays); Rate 62 g/ha, scale 0 to 100) was 0, the “Plant response rating, Corn” value (corn (Zea mays); [16]) was 0 and the “Plant response rating, Corn” value (corn (Zea mays); [17]) was 0. The “Plant response rating, Corn” value (corn (Zea mays); scale 0 to 100) was 0, the “Plant response rating, Cocklebur” value ([12]; Rate 62 g/ha, scale 0 to 100) was 40 and the “Plant response rating, Cocklebur” value [12, 16] was 80. For the same molecule, the “Plant response rating, Cocklebur” value [12, 17] was 100, the “Plant response rating, Nutsedge” value ([13]; Rate 62 g/ha, scale 0 to 100) was 0 and the “Plant response rating, Nutsedge” value [13, 16] was 20. The “Plant response rating, Velvetleaf” value ([14]; Rate 62 g/ha, scale 0 to 100) was 20, the “Plant response rating, Velvetleaf” value [14, 16] was 70 and the “Plant response rating, Velvetleaf” value [14, 17] was 70. For the same molecule, the “Plant response rating, Velvetleaf” value ([14]; scale 0 to 100) was 20, the “Plant response rating, Cupgrass, Woolly” value ([15]; Rate 62 g/ha, scale 0 to 100) was 40 and the “Plant response rating, Cupgrass, Woolly” value [15, 16] was 70. For the same molecule, the “Plant response rating, Cupgrass, Woolly” value [15, 17] was 70.
